IC50 data for 8 compounds are collected here from ChEMBL document CHEMBL1629537, “Non-natural macrocyclic inhibitors of histone deacetylases: design, synthesis, and activity” (J Med Chem, 2010).

One assay concerns the target Histone deacetylase 3 (Homo sapiens, UniProt O15379).
The test system of another assay is HCT-116. As to the kind of experiment: cells. In kind it is functional, cell-based. As to conditions: Homo sapiens, HCT-116, 48 h.
Another assay concerns the target T1, Histone deacetylase 11 (Homo sapiens, UniProt Q96DB2).
T1 sequence (Q96DB2 whole entry): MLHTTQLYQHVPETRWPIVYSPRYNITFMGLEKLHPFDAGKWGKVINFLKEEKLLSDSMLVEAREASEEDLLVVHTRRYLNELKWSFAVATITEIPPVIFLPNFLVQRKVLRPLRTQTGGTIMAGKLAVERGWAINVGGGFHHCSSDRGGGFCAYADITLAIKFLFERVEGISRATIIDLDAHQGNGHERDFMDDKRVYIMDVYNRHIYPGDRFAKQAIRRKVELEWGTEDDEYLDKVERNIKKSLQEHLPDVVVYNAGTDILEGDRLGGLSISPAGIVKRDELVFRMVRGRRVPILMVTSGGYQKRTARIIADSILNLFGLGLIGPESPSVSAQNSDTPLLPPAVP
Kind of assay: Inhibition of human HDAC11 by fluorimetric assay.

For the next assay, the target named is Histone deacetylase 2 (Homo sapiens, UniProt Q92769).
Histone deacetylase 2, sequence (Q92769 whole entry): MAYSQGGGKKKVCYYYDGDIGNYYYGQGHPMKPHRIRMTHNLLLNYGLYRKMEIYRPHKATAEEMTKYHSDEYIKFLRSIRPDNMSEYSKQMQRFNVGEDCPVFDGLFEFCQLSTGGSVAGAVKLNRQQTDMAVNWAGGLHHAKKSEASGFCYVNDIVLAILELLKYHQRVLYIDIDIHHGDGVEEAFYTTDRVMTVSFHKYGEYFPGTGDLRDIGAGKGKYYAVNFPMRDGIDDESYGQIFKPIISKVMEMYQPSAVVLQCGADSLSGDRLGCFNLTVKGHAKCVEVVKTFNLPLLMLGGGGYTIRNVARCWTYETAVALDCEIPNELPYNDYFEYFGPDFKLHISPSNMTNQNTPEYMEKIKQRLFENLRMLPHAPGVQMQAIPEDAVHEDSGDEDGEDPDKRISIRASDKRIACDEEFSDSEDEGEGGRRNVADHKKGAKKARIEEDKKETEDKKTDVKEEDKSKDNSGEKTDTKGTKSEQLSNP
In assay [1] the target is T2, Protein deacetylase HDAC6 (Homo sapiens, UniProt Q9UBN7).
T2 sequence (Q9UBN7 whole entry): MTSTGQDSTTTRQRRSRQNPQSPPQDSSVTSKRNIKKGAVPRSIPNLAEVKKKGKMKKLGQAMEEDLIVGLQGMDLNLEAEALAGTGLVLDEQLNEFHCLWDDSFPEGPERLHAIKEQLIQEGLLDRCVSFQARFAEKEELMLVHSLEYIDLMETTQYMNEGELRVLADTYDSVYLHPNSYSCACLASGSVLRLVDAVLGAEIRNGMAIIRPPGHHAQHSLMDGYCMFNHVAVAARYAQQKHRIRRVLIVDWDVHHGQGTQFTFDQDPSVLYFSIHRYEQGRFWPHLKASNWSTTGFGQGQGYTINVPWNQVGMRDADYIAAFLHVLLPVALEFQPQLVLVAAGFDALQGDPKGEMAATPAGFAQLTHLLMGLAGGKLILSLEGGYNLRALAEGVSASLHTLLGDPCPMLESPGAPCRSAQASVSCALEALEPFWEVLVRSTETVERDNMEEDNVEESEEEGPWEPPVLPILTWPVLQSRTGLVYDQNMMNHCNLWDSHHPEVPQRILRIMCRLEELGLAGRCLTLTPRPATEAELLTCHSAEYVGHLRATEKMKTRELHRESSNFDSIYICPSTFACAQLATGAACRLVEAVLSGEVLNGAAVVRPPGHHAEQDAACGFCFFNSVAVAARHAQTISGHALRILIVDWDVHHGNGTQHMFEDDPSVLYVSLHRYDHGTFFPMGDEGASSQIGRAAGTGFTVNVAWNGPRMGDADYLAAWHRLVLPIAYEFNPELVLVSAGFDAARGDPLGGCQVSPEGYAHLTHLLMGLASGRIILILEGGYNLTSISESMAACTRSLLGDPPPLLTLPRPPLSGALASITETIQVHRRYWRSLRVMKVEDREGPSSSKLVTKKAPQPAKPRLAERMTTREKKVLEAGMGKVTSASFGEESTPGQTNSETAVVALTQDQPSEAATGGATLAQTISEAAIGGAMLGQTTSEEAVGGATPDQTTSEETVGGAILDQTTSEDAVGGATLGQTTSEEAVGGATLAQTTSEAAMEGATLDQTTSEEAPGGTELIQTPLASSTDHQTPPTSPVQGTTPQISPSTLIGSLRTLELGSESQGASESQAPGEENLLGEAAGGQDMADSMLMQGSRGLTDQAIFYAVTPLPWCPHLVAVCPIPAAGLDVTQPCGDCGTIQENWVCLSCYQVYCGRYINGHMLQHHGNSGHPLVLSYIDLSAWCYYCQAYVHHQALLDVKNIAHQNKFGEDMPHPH
As to the kind of experiment: Inhibition of human HDAC6 by fluorimetric assay.

In a further assay the target is T3, Histone deacetylase 8 (Homo sapiens, UniProt Q9BY41).
T3 sequence (Q9BY41 whole entry): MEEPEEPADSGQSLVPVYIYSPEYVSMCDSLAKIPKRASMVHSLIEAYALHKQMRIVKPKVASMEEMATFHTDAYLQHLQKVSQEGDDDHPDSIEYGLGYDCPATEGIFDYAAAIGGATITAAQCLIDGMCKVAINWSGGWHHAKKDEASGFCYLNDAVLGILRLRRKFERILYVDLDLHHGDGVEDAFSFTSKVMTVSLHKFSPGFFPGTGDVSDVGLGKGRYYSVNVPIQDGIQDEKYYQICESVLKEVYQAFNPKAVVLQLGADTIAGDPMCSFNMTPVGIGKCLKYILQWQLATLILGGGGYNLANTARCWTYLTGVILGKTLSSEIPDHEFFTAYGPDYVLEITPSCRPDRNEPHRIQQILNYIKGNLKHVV
Kind of assay: Inhibition of human HDAC8 by fluorimetric assay.

A further assay addresses Histone deacetylase 5 (Homo sapiens, UniProt Q9UQL6). As to the kind of experiment: Inhibition of human HDAC5 by fluorimetric assay.
For a further assay, the target named is Histone deacetylase 1 (Homo sapiens, UniProt Q13547). Kind of assay: Inhibition of human HDAC1 by fluorimetric assay.
Histone deacetylase 1, sequence (Q13547 whole entry): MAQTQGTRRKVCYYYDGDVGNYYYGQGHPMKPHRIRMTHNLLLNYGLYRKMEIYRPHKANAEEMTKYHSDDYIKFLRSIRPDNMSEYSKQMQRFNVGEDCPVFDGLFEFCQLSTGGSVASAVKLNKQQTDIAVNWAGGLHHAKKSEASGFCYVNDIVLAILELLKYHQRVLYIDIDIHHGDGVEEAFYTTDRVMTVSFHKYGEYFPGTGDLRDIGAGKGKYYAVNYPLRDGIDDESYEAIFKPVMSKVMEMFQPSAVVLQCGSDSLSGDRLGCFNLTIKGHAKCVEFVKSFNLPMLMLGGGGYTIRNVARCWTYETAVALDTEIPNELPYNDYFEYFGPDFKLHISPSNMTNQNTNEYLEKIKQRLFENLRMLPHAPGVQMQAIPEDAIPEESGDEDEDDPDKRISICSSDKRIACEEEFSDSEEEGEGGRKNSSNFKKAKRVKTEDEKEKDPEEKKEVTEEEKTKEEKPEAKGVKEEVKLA
In another assay the target is Histone deacetylase 4 (Homo sapiens, UniProt P56524). As to the kind of experiment: Inhibition of human HDAC4 by fluorimetric assay.
Histone deacetylase 4, sequence (P56524 whole entry): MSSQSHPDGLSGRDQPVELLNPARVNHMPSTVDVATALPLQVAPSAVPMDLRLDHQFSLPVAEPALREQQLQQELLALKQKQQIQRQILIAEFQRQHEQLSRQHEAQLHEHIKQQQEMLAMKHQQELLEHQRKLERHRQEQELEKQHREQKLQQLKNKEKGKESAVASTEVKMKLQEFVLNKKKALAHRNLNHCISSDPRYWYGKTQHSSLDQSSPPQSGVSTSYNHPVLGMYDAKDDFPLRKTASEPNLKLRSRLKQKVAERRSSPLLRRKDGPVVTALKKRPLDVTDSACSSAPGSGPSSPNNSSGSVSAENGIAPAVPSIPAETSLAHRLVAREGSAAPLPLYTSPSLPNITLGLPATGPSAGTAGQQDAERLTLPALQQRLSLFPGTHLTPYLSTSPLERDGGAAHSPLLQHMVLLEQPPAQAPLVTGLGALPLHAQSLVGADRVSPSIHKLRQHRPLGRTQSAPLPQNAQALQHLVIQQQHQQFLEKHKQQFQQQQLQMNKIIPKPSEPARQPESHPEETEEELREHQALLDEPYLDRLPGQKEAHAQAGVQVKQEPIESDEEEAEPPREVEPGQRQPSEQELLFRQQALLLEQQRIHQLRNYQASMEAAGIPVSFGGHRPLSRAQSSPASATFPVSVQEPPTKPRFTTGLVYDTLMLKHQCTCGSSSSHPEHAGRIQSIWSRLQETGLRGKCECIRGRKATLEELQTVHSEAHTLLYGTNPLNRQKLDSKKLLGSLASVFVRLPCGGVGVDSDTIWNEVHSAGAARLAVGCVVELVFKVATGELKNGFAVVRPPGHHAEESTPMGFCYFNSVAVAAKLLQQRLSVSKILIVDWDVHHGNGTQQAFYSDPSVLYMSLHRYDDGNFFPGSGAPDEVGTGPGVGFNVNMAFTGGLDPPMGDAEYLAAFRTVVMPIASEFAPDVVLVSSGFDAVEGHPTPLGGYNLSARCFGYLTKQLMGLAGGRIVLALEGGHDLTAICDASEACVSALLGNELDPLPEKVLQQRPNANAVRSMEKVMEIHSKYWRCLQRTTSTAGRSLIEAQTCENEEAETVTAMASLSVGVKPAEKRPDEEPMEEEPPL
Assay [2] concerns the target T4, Polyamine deacetylase HDAC10 (Homo sapiens, UniProt Q969S8).
T4 sequence (Q969S8 whole entry): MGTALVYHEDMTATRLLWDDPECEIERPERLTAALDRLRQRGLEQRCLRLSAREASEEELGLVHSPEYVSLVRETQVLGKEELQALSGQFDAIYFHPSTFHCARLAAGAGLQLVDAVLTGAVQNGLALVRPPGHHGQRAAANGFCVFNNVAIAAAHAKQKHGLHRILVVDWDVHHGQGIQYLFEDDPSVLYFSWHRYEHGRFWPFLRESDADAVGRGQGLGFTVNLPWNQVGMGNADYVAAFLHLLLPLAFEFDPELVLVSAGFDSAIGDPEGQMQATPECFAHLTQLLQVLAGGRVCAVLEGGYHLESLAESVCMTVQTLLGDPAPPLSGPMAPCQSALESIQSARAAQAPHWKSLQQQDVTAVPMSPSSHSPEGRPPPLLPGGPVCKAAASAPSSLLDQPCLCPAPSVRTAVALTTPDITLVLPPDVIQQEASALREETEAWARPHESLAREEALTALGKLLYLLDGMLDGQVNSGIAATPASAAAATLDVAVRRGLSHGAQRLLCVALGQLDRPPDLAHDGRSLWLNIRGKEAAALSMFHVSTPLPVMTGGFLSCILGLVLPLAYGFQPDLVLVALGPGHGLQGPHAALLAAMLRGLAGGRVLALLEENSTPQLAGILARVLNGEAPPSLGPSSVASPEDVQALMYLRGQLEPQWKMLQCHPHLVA
As to the kind of experiment: Inhibition of human HDAC10 by fluorimetric assay.

The next assay concerns NCI-H460. Kind of assay: cells. In kind it is functional, cell-based. As to conditions: Homo sapiens, NCI-H460, 48 h.
Another assay addresses Histone deacetylase 9 (Homo sapiens, UniProt Q9UKV0). As to the kind of experiment: Inhibition of human HDAC9 by fluorimetric assay.

Histone deacetylase 5, sequence (Q9UQL6 whole entry): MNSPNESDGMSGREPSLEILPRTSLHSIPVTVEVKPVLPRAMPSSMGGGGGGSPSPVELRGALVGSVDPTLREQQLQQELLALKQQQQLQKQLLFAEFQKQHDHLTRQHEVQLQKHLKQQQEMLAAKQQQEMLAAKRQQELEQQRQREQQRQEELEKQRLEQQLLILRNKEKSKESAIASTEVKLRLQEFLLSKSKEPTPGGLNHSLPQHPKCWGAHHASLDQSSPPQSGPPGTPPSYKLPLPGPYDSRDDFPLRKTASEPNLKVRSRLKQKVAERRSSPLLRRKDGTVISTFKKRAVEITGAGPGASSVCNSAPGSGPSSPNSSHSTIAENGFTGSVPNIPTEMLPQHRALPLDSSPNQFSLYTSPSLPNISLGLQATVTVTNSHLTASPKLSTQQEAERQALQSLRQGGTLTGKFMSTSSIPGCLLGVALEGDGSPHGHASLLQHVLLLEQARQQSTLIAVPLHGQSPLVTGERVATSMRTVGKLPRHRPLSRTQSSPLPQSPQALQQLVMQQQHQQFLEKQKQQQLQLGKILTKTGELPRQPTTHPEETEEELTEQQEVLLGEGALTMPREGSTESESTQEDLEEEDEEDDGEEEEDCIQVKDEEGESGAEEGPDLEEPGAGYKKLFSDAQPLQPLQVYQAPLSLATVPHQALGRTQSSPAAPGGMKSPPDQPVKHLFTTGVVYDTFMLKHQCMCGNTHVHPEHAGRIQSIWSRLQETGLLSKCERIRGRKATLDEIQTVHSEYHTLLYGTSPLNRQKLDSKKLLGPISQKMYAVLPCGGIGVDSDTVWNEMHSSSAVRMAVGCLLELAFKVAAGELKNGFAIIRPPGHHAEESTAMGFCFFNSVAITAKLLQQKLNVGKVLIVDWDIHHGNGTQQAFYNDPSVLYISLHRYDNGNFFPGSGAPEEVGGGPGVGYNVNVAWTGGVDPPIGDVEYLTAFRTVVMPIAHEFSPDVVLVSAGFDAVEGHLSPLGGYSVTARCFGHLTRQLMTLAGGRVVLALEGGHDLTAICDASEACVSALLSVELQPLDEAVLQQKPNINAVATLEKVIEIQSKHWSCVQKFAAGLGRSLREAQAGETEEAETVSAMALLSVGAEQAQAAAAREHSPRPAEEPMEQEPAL
Histone deacetylase 3, sequence (O15379 whole entry): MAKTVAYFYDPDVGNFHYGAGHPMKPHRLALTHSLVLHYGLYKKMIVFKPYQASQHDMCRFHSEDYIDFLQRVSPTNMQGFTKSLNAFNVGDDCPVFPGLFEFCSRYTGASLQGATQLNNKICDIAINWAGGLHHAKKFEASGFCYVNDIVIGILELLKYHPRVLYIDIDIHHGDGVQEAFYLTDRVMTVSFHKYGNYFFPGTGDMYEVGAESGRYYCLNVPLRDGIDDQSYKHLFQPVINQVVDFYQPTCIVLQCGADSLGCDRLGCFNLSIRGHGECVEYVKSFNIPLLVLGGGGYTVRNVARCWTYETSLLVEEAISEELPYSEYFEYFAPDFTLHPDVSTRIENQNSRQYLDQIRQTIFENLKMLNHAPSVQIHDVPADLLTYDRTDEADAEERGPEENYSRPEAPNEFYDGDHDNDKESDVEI
Histone deacetylase 9, sequence (Q9UKV0 whole entry): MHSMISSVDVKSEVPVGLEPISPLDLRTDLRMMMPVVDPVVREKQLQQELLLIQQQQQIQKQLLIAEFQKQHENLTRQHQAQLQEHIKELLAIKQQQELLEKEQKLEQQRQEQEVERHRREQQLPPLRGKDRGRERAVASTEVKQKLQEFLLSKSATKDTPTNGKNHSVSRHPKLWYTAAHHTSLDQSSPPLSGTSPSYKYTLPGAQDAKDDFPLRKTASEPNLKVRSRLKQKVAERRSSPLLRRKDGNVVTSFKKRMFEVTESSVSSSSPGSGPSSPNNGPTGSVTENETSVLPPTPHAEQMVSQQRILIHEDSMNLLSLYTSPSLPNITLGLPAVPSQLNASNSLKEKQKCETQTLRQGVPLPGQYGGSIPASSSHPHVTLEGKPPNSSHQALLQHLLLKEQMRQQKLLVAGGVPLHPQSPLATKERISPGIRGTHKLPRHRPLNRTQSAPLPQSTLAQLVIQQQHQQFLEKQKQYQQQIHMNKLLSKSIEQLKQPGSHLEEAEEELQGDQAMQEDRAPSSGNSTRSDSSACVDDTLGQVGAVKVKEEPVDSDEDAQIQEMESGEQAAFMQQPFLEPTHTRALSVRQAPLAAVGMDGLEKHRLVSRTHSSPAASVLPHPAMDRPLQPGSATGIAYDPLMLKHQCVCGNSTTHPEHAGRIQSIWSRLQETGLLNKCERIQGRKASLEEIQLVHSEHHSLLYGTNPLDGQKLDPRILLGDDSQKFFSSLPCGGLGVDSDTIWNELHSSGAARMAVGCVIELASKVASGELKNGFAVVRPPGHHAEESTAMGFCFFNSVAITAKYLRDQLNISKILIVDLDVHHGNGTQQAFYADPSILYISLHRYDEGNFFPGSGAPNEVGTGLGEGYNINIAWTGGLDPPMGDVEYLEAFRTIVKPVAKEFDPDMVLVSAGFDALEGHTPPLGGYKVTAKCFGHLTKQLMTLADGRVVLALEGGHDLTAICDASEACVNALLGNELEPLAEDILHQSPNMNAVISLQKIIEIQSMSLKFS

The term IC50 denotes the midpoint of a concentration-inhibition curve. In the case of `COc1cc2cc(c1)COc1ccccc1NC(=O)[C@H](CCCCCC(=O)NO)OCCC2`, the IC50 at Histone deacetylase 3 worked out at 93.6 nM; in the assay with HCT-116 it was 520 nM; against Histone deacetylase 11, 103 nM; at Histone deacetylase 2, 268 nM; in assay [1], 3.43 nM; at Histone deacetylase 8, 136 nM. The IC50 came to 109 nM on Histone deacetylase 5; 72.2 nM on Histone deacetylase 1; 118 nM against Histone deacetylase 4; 190 nM in [2]; 740 nM in the assay on NCI-H460; 123 nM against Histone deacetylase 9.

Regarding `COc1cc2cc(c1)COc1ccccc1NC(=O)[C@@H](CCCCCC(=O)NO)OCCC2`, the IC50 at Histone deacetylase 3 turned out to be 94.5 nM; with HCT-116, 850 nM; at Histone deacetylase 11, 174 nM; at Histone deacetylase 2, 425 nM; in assay [1], 3.92 nM; against Histone deacetylase 8, 90.7 nM. Also, the IC50 came to 150 nM against Histone deacetylase 5; 102 nM on Histone deacetylase 1; 454 nM at Histone deacetylase 4; 200 nM in assay [2]; 680 nM in the assay with NCI-H460; 322 nM on Histone deacetylase 9.

With `O=C(CCCCCC1OCCCCCCOc2ccccc2NC1=O)NO` (racemic), the IC50 was 176 nM on Histone deacetylase 3; 580 nM in the assay on HCT-116; 564 nM against Histone deacetylase 11; 1570 nM against Histone deacetylase 2; 10.1 nM in [1]; 1100 nM at Histone deacetylase 8. The IC50 on Histone deacetylase 5 was 878 nM; on Histone deacetylase 1, 560 nM; against Histone deacetylase 4 it was 1200 nM; in [2], 683 nM; in the assay with NCI-H460, 1000 nM; against Histone deacetylase 9, 687 nM.

`O=C(CCCCCC1OCCCCCCCOc2ccccc2NC1=O)NO` (racemic): the IC50 came out at 240 nM at Histone deacetylase 3; 350 nM in the assay with HCT-116; 546 nM against Histone deacetylase 11; 1540 nM at Histone deacetylase 2; 9.38 nM in [1]; 286 nM against Histone deacetylase 8. Also, the IC50 came out at 695 nM against Histone deacetylase 5; 439 nM against Histone deacetylase 1; 1250 nM on Histone deacetylase 4; 958 nM in [2]; 620 nM in the assay on NCI-H460; 1040 nM at Histone deacetylase 9.

In the case of `COc1cc2cc(c1)COc1ccccc1NC(=O)C(CCCCCC(=O)NO)OCCC2` (racemic), the IC50 against Histone deacetylase 3 worked out at 246 nM; with HCT-116, 690 nM; against Histone deacetylase 11, 226 nM; at Histone deacetylase 2, 793 nM; in assay [1], 8.44 nM; against Histone deacetylase 8, 444 nM. Further, the IC50 came to 341 nM against Histone deacetylase 5; 204 nM against Histone deacetylase 1; 447 nM against Histone deacetylase 4; 320 nM in [2]; 870 nM in the assay with NCI-H460; 336 nM at Histone deacetylase 9.

In the case of `COc1ccc(COC(CCCCCC(=O)NO)C(=O)Nc2ccccc2)cc1` (racemic), the half-maximal inhibitory concentration (IC50) worked out at 131 nM at Histone deacetylase 3; 197 nM against Histone deacetylase 11; 254 nM at Histone deacetylase 2; 20.1 nM in assay [1]; 331 nM against Histone deacetylase 8; 134 nM against Histone deacetylase 5. The concentration for half-maximal inhibition (IC50) against Histone deacetylase 1 worked out at 53.4 nM; on Histone deacetylase 4, 648 nM; in assay [2] it was 179 nM; at Histone deacetylase 9, 247 nM.

With `O=C(/C=C/c1ccc(CN(CCO)CCc2c[nH]c3ccccc23)cc1)NO` [DACINOSTAT], the IC50 with HCT-116 came out at 18 nM; with NCI-H460, 70 nM.

Turning to `CC(/C=C/C(=O)NO)=C\[C@@H](C)C(=O)c1ccc(N(C)C)cc1` [TRICHOSTATIN], the results for the IC50 with HCT-116 and in the assay on NCI-H460 were 43 nM and 100 nM, respectively.
